Assay results reported in patent US5322928A, “Diapause hormone isolated from silkworm exhibiting improved diapause activity” (Shionogi Seiyaku Kabushiki Kaisha, priority 1991, dated 1994).
Where no end group is shown, it is not given here.

Tested on: silkworm non-diapause strain (N4 line) pupa
Experiment: Assay of bioactivity: specimen injected into 4 days-age pupa of non-diapause strain, percentage of laid eggs that diapause
Assay type: in vivo, silkworm (Bombyx mori)
Settings: qualitative
Procedure: The hormonal activity was confirmed by the following method: the specimen is injected into the 4 days-age pupa of non-diapause strain. After the pupa transforms into a imago, copulates, and lays eggs, it is investigated whether or not the eggs diapause without embryogenesis. […] In case that the specimen has the hormonal activity, the color of the eggs becomes blackish-brown which is not observed in non-diapausing eggs. […] The hormonal activity is determined by calculating what percentage of the eggs laid by one imago diapauses. One diapause hormone unit is the amount of the hormone which make 50% of the laid eggs diapause. In this invention, the isolated diapause hormone was 0.1 ng/unit.

| Substance | diapause hormone activity (hormonal activity in bioassay) |
| --- | --- |
| TDMKDESDRGAHSERGALCFGPRL-NH2 [amino acid 19 is Cys] | have diapause activity |
| TDMKDESDRGAHSERGALWFGPRL-NH2 [amino acid 19 is Trp] | have diapause activity |
